{"source": "paper PMC9861623", "about": "“New Ferulic Acid and Amino Acid Derivatives with Increased Cosmeceutical and Pharmaceutical Potential” (Pharmaceutics, 2022)", "key": {"[1]": {"experiment": "n-octanol/water partition coefficient by shake flask method", "format": "physicochemical", "details": "from log PO/W", "method": "The n-octanol/water partition coefficient (log PO/W) was determined for ferulic acid and its derivatives by shake flask method. n-Octanol saturated with water and water saturated with n-octanol were prepared at 25 °C, 24 h prior to their use in the experiments. Then, a sample of 10 mg of compound was weighed with the accuracy of 0.01 mg in a 16 cm^3 screwed vial and dissolved in 5 cm^3 of n-octanol. Next, 5 cm^3 of water was added to the vial. The resulting two-phase mixture was kept in water bath shaker at 25 °C for 2 h and was strongly shaken to reach the partition equilibrium of the compound between the phases. Then the mixture was left unshaken for 30 min and 1.0 cm^3 of water phase was carefully taken out to centrifuge tube. The sample was next centrifuged for 10 min at 7500 rpm at 25 °C to ensure the most precise phase separation. The concentration of compound in water phase was then determined using HPLC method. The partition coefficient, log PO/W was calculated according to the formula: logPO/W=logC0V0−CWVW/CWVW where: C0—initial concentration of the compound in n-octanol, calculated based on the weighed mass of compound, mg·cm^−^3; V0—volume of n-octanol, cm^3; CW—concentration of the compound in water after partition equilibrium, mg·cm^−^3; VW—volume of water, cm^3."}, "[2]": {"experiment": "DPPH radical scavenging assay of the compounds", "method": "(§1) To determine the antioxidant capacity of ferulic acid and its derivatives the DPPH method was used. The analyses were performed using the Hitachi UV-Vis Spectrophotometer U-5100 at the wavelength λ = 517 nm. Trolox (6-hydroxy-2,5,7,8-tetramethylchroman-2-carboxylic acid) was used as a reference substance. The antioxidant activity was expressed as %RSA and mmol Trolox dm^−3. […]. Blank samples without antioxidant were prepared in the same way. The tubes were wrapped in aluminum foil and were sealed with a stopper and then incubated for 10 min at room temperature. After this time, spectrophotometric measurements were carried out in triplicate. For determination of antioxidant activity of the acceptor fluid after 24 h of permeation and solutions obtained by extraction of the skin obtained after penetration study, 0.15 mL samples of each solutions were separately added to 2.85 mL of DPPH solution and spectrophotometric measurements were performed. The antioxidant activity was expressed as mmol Trolox·dm^−3."}, "[3]": {"experiment": "DPPH antioxidant activity of acceptor fluid after 24 h permeation", "set-up": "species or system pig", "details": "after 24 h penetration", "method": "as §1\nThe permeation experiments were performed using Franz diffusion cells (Phoenix DB-6, ABL&E-JASCO, Wien, Austria). The diffusion was 1 cm^2. The volume of the acceptor chamber was 8 mL. This chamber was filled with PBS solution (pH 7.4). During experiment, a constant temperature of 37.0 ± 0.5 °C was maintained in each diffusion unit. The acceptor chamber content was stirred with a magnetic stirring bar at the same speed for all cells. The prepared pig skin was mounted on each donor chamber. As previously mentioned, only undamaged skin pieces with an even thickness were chosen for experiments. Thereafter, the hydrogel or emulsion vehicle/preparation in 1 g portion was put on the skin in donor cells. For comparison, 1 mL ethanolic solution containing either FA or its derivatives was applied to another donor chamber. The amount of the FA and its derivatives applied on the skin expressed as the mass of ferulic acid was 0.01 g and was the same for each carrier. The penetration experiments were carried out for 24 h. The samples were collected after 1 h, 2 h, 3 h, 4 h, 5 h, 6 h, 8 h, and 24 h. Aliquots of the acceptor fluid (0.5 mL) were withdrawn and to each acceptor chamber the same volume of fresh PBS solution was added. The FA and its derivatives’ concentrations in the acceptor fluid were measured by HPLC method (Section 2.6.2). The cumulative mass (µg·cm^−2) and penetration rate (µg·cm^−2·h^−1) were calculated. The acceptor fluid collected after 24 h of permeation was also measured for antioxidant activity and total polyphenol content (as described in Section 2.5.1 and Section 2.5.2)."}, "[4]": {"experiment": "Thermogravimetric (TG) analysis, thermal stability", "format": "physicochemical", "method": "Samples of 2–5 mg, loaded in aluminium crucibles, were heated from 30 °C to 600 °C at the heating rate of 10 °C·min^−1, in the air atmosphere (25 mL·min^−1) with nitrogen flow (10 mL·min^−1) as the purge gas."}, "L929 cells [5]": {"test_system": "L929 cells", "set-up": "method as in PMID 24344870", "details": "L929, 72 h, cited from earlier work"}, "L929 cells [6]": {"test_system": "L929 cells", "set-up": "method as in PMID 32485864", "details": "L929, 24 h, highest tested concentration of 2.5–40 mg L^−1, Trypan blue; cited from earlier work"}, "L929 cells [7]": {"test_system": "L929 cells", "set-up": "method as in PMID 32485864", "details": "L929, 24 h, 2.5–40 mg L^−1, MTT assay; cited from earlier work"}, "cancer cells (HepG2)": {"test_system": "cancer cells (HepG2)", "set-up": "method as in PMID 29077251", "details": "HepG2, 500 μg mL^−1; cited from earlier work"}, "NIH-3T3 cells": {"test_system": "NIH-3T3 cells", "set-up": "method as in PMID 29077251", "details": "NIH-3T3, 500 μg mL^−1; cited from earlier work"}, "fibroblasts": {"test_system": "fibroblasts", "set-up": "method as in doi:10.3390/pr9071204", "details": "fibroblasts after UVB irradiation, increased from 9.92%; cited from earlier work"}, "NRK-52E cells": {"test_system": "NRK-52E cells", "set-up": "method as in doi:10.1016/j.jddst.2022.103621", "details": "75 μM, high glucose environment; cited from earlier work"}, "[8]": {"test_system": "Murine fibroblasts (L929)", "experiment": "Cytotoxicity, PrestoBlue resazurin-based cell viability assay", "details": "0.03125–2.0 mM (any dosage), 24 h", "description": "The cell biocompatibility was evaluated using a PrestoBlue HS Cell Viability Reagent (Thermo Fisher Scientific, MA USA) based on the reduction of the resazurin to highly fluorescent resorufin, of which the amount is directly correlated to the number of living cells. […] The cells without tested compounds were used as control. The interaction of tested compounds without cells and Prestoblue Reagent (blank wells) was excluded. After 24 h of treatment, optical microscopy imaging of L929 cells was performed using Smart Fluorescent Cell Analyzer Microscope JuLi (Seoul, Korea). Next, the PrestoBlue reagent (10 μL) was added to each well and incubated for 30 min. The fluorescence was measured using a spectrophotometric microplate reader (Infinite 200 Pro, Tecan, Männedorf, Switzerland) at ex/em: 560/594 nm. The readings were acquired from at least three independent experiments (each conducted in triplicate) and normalized to the control (100% viability)."}, "[9]": {"details": "molar ratio antioxidant:DPPH 0.1, 10 min, listed as FA"}, "[10]": {"details": "molar ratio antioxidant:DPPH 1.0, 10 min"}, "[11]": {"details": "molar ratio antioxidant:DPPH 2.0, 10 min, listed as FA"}}, "note": "“And” between values parts separate entries of the source, which are not always exact repeats. Equal entries are not always repeated. Where two headings read alike, the source gives them in different places."}
{"smiles": "COc1cc(/C=C/C(=O)O)ccc1O", "note": "[Ferulic acid]", "values": [{"measurement": "Share of compound partitioned to n-octanol", "setting": "[1]", "value": "~98", "unit": "%"}, {"measurement": "Antioxidant activity %RSA", "setting": "[2]; [9]", "value": "12.4 ± 0.001 %RSA and 12.4 ± 0.001 a %RSA"}, {"measurement": "Antioxidant activity, Trolox equivalents", "setting": "[2]; [9]", "value": "0.049 ± 0.001 mmol Trolox dm^−3 and 0.049 ± 0.001 a mmol Trolox dm^−3"}, {"measurement": "Antioxidant activity %RSA", "setting": "[2]; [10]", "value": "73.2 ± 0.001", "unit": "b %RSA"}, {"measurement": "Antioxidant activity, Trolox equivalents", "setting": "[2]; [10]", "value": "0.635 ± 0.001", "unit": "b mmol Trolox dm^−3"}, {"measurement": "Antioxidant activity %RSA", "setting": "[2]; [11]", "value": "86.5 ± 0.001 %RSA and 86.5 ± 0.001 b %RSA"}, {"measurement": "Antioxidant activity, Trolox equivalents", "setting": "[2]; [11]", "value": "0.763 ± 0.001 mmol Trolox dm^−3 and 0.763 ± 0.001 b mmol Trolox dm^−3"}, {"measurement": "DPPH antioxidant activity of the acceptor fluid", "setting": "[3]; emulsion", "value": "0.057 ± 0.004", "unit": "a mmol Trolox dm^−3"}, {"measurement": "DPPH antioxidant activity of the acceptor fluid", "setting": "[3]; ethanol solution, listed as FA", "value": "0.079 ± 0.010 mmol Trolox dm^−3 and 0.079 ± 0.010 a mmol Trolox dm^−3"}, {"measurement": "DPPH antioxidant activity of the acceptor fluid", "setting": "[3]; hydrogel", "value": "0.067 ± 0.004", "unit": "a mmol Trolox dm^−3"}, {"measurement": "Td onset, the onset of decomposition", "setting": "[4]; TG, air atmosphere, 10 °C·min^−1", "value": 217.0, "unit": "°C"}, {"measurement": "Td max, temperature of the fastest mass loss of the sample", "setting": "[4]; TG/DTG, air atmosphere, 10 °C·min^−1", "value": 251.2, "unit": "°C"}, {"measurement": "Temperature range of decomposition (main weight loss)", "setting": "[4]; according to the DTG curve", "value": "175–300 °C"}, {"measurement": "cell viability", "setting": "L929 cells [5]; 500 μg mL^−1 (2.57 mM)", "value": 67, "unit": "%"}, {"measurement": "cell viability", "setting": "L929 cells [5]; 1000 μg mL^−1 (5.15 mM)", "value": 28, "unit": "%"}, {"measurement": "cell viability", "setting": "L929 cells [6]", "value": 80, "unit": "%"}, {"measurement": "effect on cell viability/proliferation", "setting": "L929 cells [7]", "value": "no effect on cell viability/proliferation"}, {"measurement": "viability of cancer cells", "setting": "cancer cells (HepG2)", "value": "significantly decreased the viability"}, {"measurement": "toxicity on normal cells", "setting": "NIH-3T3 cells", "value": "did not cause any toxicity"}, {"measurement": "percentage of viable cells", "setting": "fibroblasts", "value": 46.02, "unit": "%"}, {"measurement": "effect in cultured NRK-52E cells", "setting": "NRK-52E cells", "value": "countered excessive ROS generation, induced autophagy, and inhibited apoptotic death of cells"}, {"measurement": "Difference in L929 viability between control and treated cells", "setting": "[8]", "value": "No statistically significant differences in viability"}]}
